In one series the test system is VZV. In words: In vitro antiviral test, 50% plaque formation inhibition, anti-VZV activity. Type of series: cell-based, varicella-zoster virus (VZV). How it is done:
(§1) The compounds of the present invention were measured for their in vitro antiviral activity (anti-HSV-1 activity, anti-VZV activity) by using human fetal lung-derived cells in an assay for 50% plaque formation inhibition (Japanese Journal of Chemotherapy, Vol. 38, No. 3, 256-261, 1990).

For the next series, the system named is HSV-1. In words: In vitro antiviral test, 50% plaque formation inhibition, anti-HSV-1 activity. Type of series: cell-based, herpes simplex virus type 1 (HSV-1). How it is done:
as §1

The next series has as its system uninfected cells. The conditions noted are these: cited from earlier work.
Another series concerns HSV-1 infection in mice. The conditions noted are these: compared with acyclovir; Non-patent Document 1; cited from earlier work.
Series [1] concerns HSV-1 infection in mouse skin. In words: In vivo antiviral test, HSV-1 mouse skin infection model (creams). The conditions noted are these: HSV-1-infected mice, cream; for Incidence rate: affected/total animals. How it is done:
Creams were prepared for the compounds of the present invention according to Formulation Example 2 and tested for their therapeutic effect on HSV-1 infection in mouse skin. Moreover, skin symptoms in the HSV-1-infected mice were scored (Antiviral Research, 17, 133-143, 1992), and the time course of changes in their average lesion scores is shown in FIG. 1.
According to the ratio indicated above, creams were prepared in a routine manner and provided for Pharmacological Test Example 2.

For series [2], the system named is herpes simplex virus type 1 (HSV-1) and varicella-zoster virus (VZV). Particulars: Patent Document 1; cited from earlier work.
Setting [3] is: Human alphaherpesvirus 3, 50% plaque formation inhibition, human fetal lung-derived cells, read-out: Anti-VZV activity (ED50).
Setting [4] is: Human alphaherpesvirus 1, effective concentration required to reduce the number of plaques to 50%, human fetal lung-derived cells, read-out: Anti-HSV-1 activity (ED50).
[5] abbreviates: Human alphaherpesvirus 3, read-out: Anti-VZV activity (ED50).
[6] abbreviates: Human alphaherpesvirus 1, read-out: Anti-HSV-1 activity (ED50).

Where a name gives a salt, the structure may show the parent alone. Read-outs that look alike come from different tables or passages of the source.

Take `O=C(OCC1OC(n2cc(/C=C/Cl)c(=O)[nH]c2=O)C(O)C1O)c1ccncc1` [Compound 4, (E)-5-(2-chlorovinyl)-1-[5′-O-(pyridine-4-carboxyl)-β-D-arabinofuranosyl]uracil hydrochloride]: the EC50 in the series with VZV (setting [3]) amounted to 21 nM; in the series on HSV-1 (setting [4]), 130 nM.

In the case of `O=c1[nH]c(=O)n([C@@H]2O[C@H](CO)[C@@H](O)[C@@H]2O)cc1/C=C/Br` [Sorivudine, 1-β-D-arabinofuranosyl-(E)-5-(2-bromovinyl)uracil], in the series on uninfected cells, the Cytotoxicity result is recorded as “extremely low”. Moreover, the “Usefulness as external formulation for HSV-1 infection in mice” value in the series with HSV-1 infection in mice is listed as “as useful as acyclovir”.

`CN1CCC(C(=O)OCC2OC(n3cc(/C=C/Cl)c(=O)[nH]c3=O)C(O)C2O)CC1` [Compound 5, (E)-5-(2-chlorovinyl)-1-[5′-O—(N-methylpiperidine-4-carboxyl)-β-D-arabinofuranosyl]uracil hydrochloride]: the results for the EC50 in the series on VZV (setting [3]) and in the series with HSV-1 (setting [4]) were 47 nM and 560 nM, respectively.

As to `O=C(OCC1OC(n2cc(/C=C/Cl)c(=O)[nH]c2=O)C(O)C1O)C1CCNCC1` [Compound 1, (E)-5-(2-chlorovinyl)-1-[5′-O-(piperidine-4-carboxyl)-β-D-arabinofuranosyl]uracil hydrochloride], the Incidence rate in series [1] (hydrochloride) was 4/8. The EC50 with VZV (setting [5]) stood at 46 nM; with HSV-1 (setting [6]) it was 400 nM.

Take `O=C(OCC1OC(n2cc(/C=C/Cl)c(=O)[nH]c2=O)C(O)C1O)c1cccnc1` [Compound 3, (E)-5-(2-chlorovinyl)-1-[5′-O-(pyridine-3-carboxyl)-β-D-arabinofuranosyl]uracil hydrochloride]: the EC50 was found to be 52 nM with VZV (setting [3]) and 490 nM with HSV-1 (setting [4]).

For `O=c1[nH]c(=O)n([C@@H]2O[C@H](CO)[C@@H](O)[C@@H]2O)cc1/C=C/Cl` [CVAU, 1-β-D-arabinofuranosyl-(E)-5-(2-chlorovinyl)uracil, reference compound], the Incidence rate in series [1] is recorded as 6/8. Moreover, the Survival rate in series [1] (survivors/total animals, chi-square test vs control) is reported as 7/8 P < 0.01. The EC50 was found to be 8.9 nM with VZV (setting [3]) and 75 nM in the series with HSV-1 (setting [4]). Also, the “Activity compared with sorivudine” value in series [2] is recorded as “the same activity as sorivudine”.

Turning to `CC(C)C(N)C(=O)OCC1OC(n2cc(/C=C/Cl)c(=O)[nH]c2=O)C(O)C1O` [Compound 2, 1-[5′-0-(L-valine)-β-D-arabinofuranosyl]-(E)-5-(2-chlorovinyl)uracil hydrochloride], the Incidence rate in series [1] was 8/8. Besides, the EC50 with VZV (setting [5]) came out at 19 nM; with HSV-1 (setting [6]) it was 120 nM.

These data come from patent US8076302B2, “Pyrimidine nucleoside derivatives and salts thereof” (aRigen Pharmaceuticals, Inc., priority 2007, dated 2011).
